pIC50: −log10 of the molar value.
Experiments:
[1] = test system: secretion of TNF-α in THP-1 cells; assay: TNF-α secretion in THP-1 cells (LPS-triggered, HTRF); type: cell-based; settings: Homo sapiens, LPS stimulation, 17 h, read-out: IC50 with respect to the secretion of TNF-α in THP-1 cells
[2] = test system: ABC-DLBCL cell lines TMD-8 and HBL-1 and OCI-LY10; assay: Cell proliferation measurement (Cell Titer Glo, combination, isobolograms); type: cell-based, human; settings: combination with ibrutinib or RN486 or AVL-292 or CGI-1746; TMD-8, HBL-1, OCI-LY10 cells; 72 h
[3] = test system: human TMD-8 ABC-DLBCL tumours; settings: TMD-8 xenograft, C.B-17 SCID mice, ibrutinib 10 mg/kg
[4] = test system: relapsed DLBCL; settings: phase 2 study; cited from earlier work

pIC50 [1] | SMILES | antitumour (anti-proliferative) action of the combination compared to single treatments [2] | Max. weight loss ([3]; QD p.o., Example 11 40 mg/kg, change versus initial body weight) [%] | effect on the tumour growth of TMD-8 (in words) ([3]; oral daily, Example Compound 11 40 mg/kg) | patients responded to treatment [4] [%]
7.00 | CC(C)(O)CCn1cc2cc(NC(=O)c3cccc(C(F)F)n3)c(C(C)(C)O)cc2n1 [Example 13, 6-(Difluoromethyl)-N-[2-(3-hydroxy-3-methylbutyl)-6-(2-hydroxypropan-2-yl)-2H-indazol-5-yl]pyridine-2-carboxamide] | distinct rise in antitumour action was almost always recorded | – | – | –
7.00 | Cc1nc(C(=O)Nc2cc3cn(CCC(C)(C)O)nc3cc2C(C)(C)O)ccc1F [Example 19, 5-Fluoro-N-[2-(3-hydroxy-3-methylbutyl)-6-(2-hydroxypropan-2-yl)-2H-indazol-5-yl]-6-methylpyridine-2-carboxamide] | distinct rise in antitumour action was almost always recorded | – | – | –
– | C=CC(=O)N1CCC[C@@H](n2nc(-c3ccc(Oc4ccccc4)cc3)c3c(N)ncnc32)C1 [Ibrutinib, 1-{(3R)-3-[4-amino-3-(4-phenoxyphenyl)-1H-pyrazolo[3,4-d]pyrimidin-1-yl]piperidin-1-yl}prop-2-en-1-one] | – | −5 | moderate inhibitory effect | 40

From patent publication US20220241261A1, “COMBINATIONS OF INHIBITORS OF IRAK4 WITH INHIBITORS OF BTK” (Bayer Pharma Aktiengesellschaft, priority 2015, published 2022)
